We go through 15 compounds from patent US10179141B2, “Certain chemical entities, compositions, and methods” (Suzhou NeuPharma Co., Ltd., priority 2010, dated 2019).

In brackets after ≈: the same amount, converted by molar mass.

Usually IC50 stands for the midpoint of a concentration-inhibition curve. The low end stands for higher potency, the high end for lower potency. The term solubility denotes the dissolved amount per volume that the medium holds. Higher therefore signals a readily soluble substance. What is called T/C is the ratio of treated to control.

The test system of data set [1] is A549 cells. Nature of the data set: Inhibition of cell growth in tumor cells, MTT assay, A549. The note with it: Homo sapiens, 72 h compound exposure. It is filed as cell-based. As for the experimental part: (§1) Inhibition of cell growth by compounds was measured using MTT assay (Mosmann, T., Journal of Immunological Methods, 1983, 65, 55-63). Tumor cell lines were purchased from ATCC (American Type Culture Collection, Manassas, Va.). All cell lines were maintained in RPMI 1640 (Hyclone) supplemented with 10% fetal bovine serum (FBS, Hyclone), glutamine (2 mM, Hyclone), and antibiotics (penicillin 100 U/mL and streptomycin 50 μg/mL) at 37° C. in a humidified atmosphere of 5% CO2 in air. Taxol (positive control, Sigma) and compounds were dissolved in DMSO (Sigma), and the final concentration of DMSO in the medium was 1%. Tumor cells were plated in 96-well plates at densities from 4000 cells/well of a 96-well plate and allowed to adhere/grow for 24 h. They were then treated with various concentrations of drug for 72 h. 3-(4,5-Dimethylthiazol-2-yl)-2,5-diphenyltetrazolium bromide (MTT, Sigma) was used to determine the number of viable cells at the time of compound addition and the number of cells remaining after 72 h compound exposure. The number of cells remaining after 72 h was compared to the number of viable cells at the time of compound addition by measuring the absorbance at 570 nm, allowing for the calculation of growth inhibition.
(§2) All concentrations of compounds were tested in triplicate and controls were averaged over 4 wells. IC50 was calculated by plotting the concentration of compound vs the percentage of inhibition in treated wells using GraphPad Prism 5.
On the technique in general: Tetrazolium assays rely on reduction of a dye to a coloured formazan, in cell work by metabolically active cells.

Data set [2] deals with Bcap-37 cells. Nature of the data set: Inhibition of cell growth in tumor cells, MTT assay, Bcap-37. It is filed as cell-based. The note with it: Homo sapiens, Bcap37, 72 h compound exposure. As for the experimental part: as §1, §2
Data set [3] can be described thus: Measurement of equilibrium solubility in aqueous buffer (HPLC UV). It is filed as physicochemical. The note with it: aqueous NaOAc/AcOH buffer, thermodynamic from solid, NaOAc/AcOH buffer (100 mM, pH 5.0), shaken at rt for 24 h. As for the experimental part: The equilibrium solubility of compounds is measured in aqueous buffer. Excess amount of solid compound is added into buffer solution and the sample is briefly sonicated and then shaken at rt for 24 h. The sample is filtered and the concentration is analyzed by HPLC UV. A standard solution at 0.2 mg/mL was prepared in methanol or acetonitrile for each compound and used as an external standard for quantification. Data for bufalin and four of the compounds specifically described herein in NaOAc/AcOH buffer (100 mM, pH 5.0) is shown below.

The test system of data set [4] is tumor xenografts. Nature of the data set: Inhibition of tumor growth in xenograft model. It is filed as in vivo, BALB/c female nude mice. The note with it: 10 mg/kg, Q4D × 3, i.v. As for the experimental part:
Cells were implanted in BALB/c female nude mice and grown as tumor xenografts. When tumors achieved 150-200 mm^3, mice were assigned into treatment and control groups using randomized block design based upon their tumor volumes. Each group contained 10 tumor-bearing mice. Tumors were measured twice weekly in two dimensions using a caliper, and the tumor volume was calculated from two-dimensional measurements using the equation V=0.5×a×b^2 where a and b are the long and short diameters of the tumor, respectively. The tumor volume was then used for calculations of T/C values. The T/C value was an indication of antitumor effectiveness; T and C were the mean volume of the treated and control groups, respectively, on a given day.

In data set [1], `C[C@]12CC[C@H](OC(=O)NCCCC(=O)O)C[C@H]1CC[C@@H]1[C@@H]2CC[C@]2(C)[C@@H](c3ccc(=O)oc3)CC[C@]12O` [4-(((((3S,5R,8R,9S,10S,13R,14S,17R)-14-hydroxy-10,13-dimethyl-17-(2-oxo-2H-pyran-5-yl)hexadecahydro-1H-cyclopenta[a]phenanthren-3-yl)oxy)carbonyl)amino)butanoic Acid] displayed an IC50 of 0.06 µM.

For `C[C@]12CC[C@H](OC(=O)NCCN3CCCC3)C[C@H]1CC[C@@H]1[C@@H]2CC[C@]2(C)[C@@H](c3ccc(=O)oc3)CC[C@]12O` [(3S,5R,8R,9S,10S,13R,14S,17R)-14-hydroxy-10,13-dimethyl-17-(2-oxo-2H-pyran-5-yl)hexadecahydro-1H-cyclopenta[a]phenanthren-3-yl (2-(pyrrolidin-1-yl)ethyl)carbamate], the figures for the IC50 in data set [1] and in data set [2] were 0.0028 µM and 0.0053 µM, respectively. The amount in solution in data set [3] (solubility at 24 h) came to 1.04 mg/mL (≈ 1970 µM).

With `C[C@H](N)C(=O)O[C@H]1CC[C@@]2(C)[C@H](CC[C@@H]3[C@@H]2CC[C@]2(C)[C@@H](c4ccc(=O)oc4)CC[C@]32O)C1` [(S)-(3S,5R,8R,9S,10S,13R,14S,17R)-14-hydroxy-10,13-dimethyl-17-(2-oxo-2H-pyran-5-yl)hexadecahydro-1H-cyclopenta[a]phenanthren-3-yl 2-aminopropanoate], half-maximal inhibition in data set [2] (IC50) was put at 0.0159 µM.

With `C[C@]12CC[C@H](OC(=O)N3CCOCC3)C[C@H]1CC[C@@H]1[C@@H]2CC[C@]2(C)[C@@H](c3ccc(=O)oc3)CC[C@]12O` [(3S,5R,8R,9S,10S,13R,14S,17R)-14-hydroxy-10,13-dimethyl-17-(2-oxo-2H-pyran-5-yl)hexadecahydro-1H-cyclopenta[a]phenanthren-3-yl morpholine-4-carboxylate], the half-maximal inhibitory concentration (IC50) in data set [2] worked out at 0.223 µM.

Regarding `C[C@]12CC[C@H](OC(=O)N3CCNCC3)C[C@H]1CC[C@@H]1[C@@H]2CC[C@]2(C)[C@@H](c3ccc(=O)oc3)CC[C@]12O` [(3S,5R,8R,9S,10S,13R,14S,17R)-14-hydroxy-10,13-dimethyl-17-(2-oxo-2H-pyran-5-yl)hexadecahydro-1H-cyclopenta[a]phenanthren-3-yl piperazine-1-carboxylate], the midpoint of inhibition in data set [1], the IC50, lay at 0.0018 µM. Besides, in data set [3], the solubility at 24 h is 0.84 mg/mL (≈ 1680 µM).

`CC(C)[C@H](N)C(=O)O[C@H]1CC[C@@]2(C)[C@H](CC[C@@H]3[C@@H]2CC[C@]2(C)[C@@H](c4ccc(=O)oc4)CC[C@]32O)C1` [(S)-(3S,5R,8R,9S,10S,13R,14S,17R)-14-hydroxy-10,13-dimethyl-17-(2-oxo-2H-pyran-5-yl)hexadecahydro-1H-cyclopenta[a]phenanthren-3-yl 2-amino-3-methylbutanoate] came in with an IC50 in data set [2] of 0.0489 µM. Moreover, the solubility at 24 h in data set [3] is 0.12 mg/mL (≈ 247 µM).

In the case of `CC(C)[C@@H](N)C(=O)O[C@H]1CC[C@@]2(C)[C@H](CC[C@@H]3[C@@H]2CC[C@]2(C)[C@@H](c4ccc(=O)oc4)CC[C@]32O)C1` [(R)-(3S,5R,8R,9S,10S,13R,14S,17R)-14-hydroxy-10,13-dimethyl-17-(2-oxo-2H-pyran-5-yl)hexadecahydro-1H-cyclopenta[a]phenanthren-3-yl 2-amino-3-methylbutanoate], half-maximal inhibition in data set [1] (IC50) required 0.147 µM.

In the case of `C[C@]12CC[C@H](OC(=O)NCCN3CCOCC3)C[C@H]1CC[C@@H]1[C@@H]2CC[C@]2(C)[C@@H](c3ccc(=O)oc3)CC[C@]12O` [(3S,5R,8R,9S,10S,13R,14S,17R)-14-hydroxy-10,13-dimethyl-17-(2-oxo-2H-pyran-5-yl)hexadecahydro-1H-cyclopenta[a]phenanthren-3-yl (2-morpholinoethyl)carbamate], half-maximal inhibition in data set [1] (IC50) required 0.0074 µM.

With `C[C@]12CCC(O)C[C@H]1CC[C@@H]1[C@@H]2CC[C@]2(C)[C@@H](c3ccc(=O)oc3)CC[C@]12O` (some centres unmarked) [Bufalin, reference compound], the values for the IC50 in data set [1] and in data set [2] were 0.0044 µM and 0.014 µM, respectively. Besides, the concentration in solution in data set [3] (solubility at 24 h) was 0.041 mg/mL (≈ 106 µM).

Take `CC(=O)O[C@H]1C(=O)[C@@]2(C)[C@H]([C@H](OC(=O)c3ccccc3)[C@]3(O)C[C@H](OC(=O)[C@H](O)[C@@H](NC(=O)c4ccccc4)c4ccccc4)C(C)=C1C3(C)C)[C@]1(OC(C)=O)CO[C@@H]1C[C@@H]2O` [Paclitaxel]: the T/C in data set [4] (mean tumor volume treated/control) is 74.6%. Moreover, in data set [4] (nude mouse xenograft), the “Tumor Volume Post-treatment” value is listed as 391 ± 43 mm^3.

As to `C[C@]12CC[C@H](OC(=O)OCCN3CCOCC3)C[C@H]1CC[C@@H]1[C@@H]2CC[C@]2(C)[C@@H](c3ccc(=O)oc3)CC[C@]12O` [(3S,5R,8R,9S,10S,13R,14S,17R)-14-hydroxy-10,13-dimethyl-17-(2-oxo-2H-pyran-5-yl)hexadecahydro-1H-cyclopenta[a]phenanthren-3-yl (2-morpholinoethyl) carbonate], in data set [1], the IC50 worked out at 0.0122 µM.

Compound `C[C@]12CC[C@H](OC(=O)OCCN3CCCC3)C[C@H]1CC[C@@H]1[C@@H]2CC[C@]2(C)[C@@H](c3ccc(=O)oc3)CC[C@]12O` [(3S,5R,8R,9S,10S,13R,14S,17R)-14-hydroxy-10,13-dimethyl-17-(2-oxo-2H-pyran-5-yl)hexadecahydro-1H-cyclopenta[a]phenanthren-3-yl (2-(pyrrolidin-1-yl)ethyl) carbonate] showed a 50% inhibitory concentration (IC50) in data set [2] of 0.0106 µM. In addition, in data set [3], the concentration in solution (solubility at 24 h) came to 0.71 mg/mL (≈ 1350 µM).

In data set [1], `CC(C)C[C@@H](N)C(=O)O[C@H]1CC[C@@]2(C)[C@H](CC[C@@H]3[C@@H]2CC[C@]2(C)[C@@H](c4ccc(=O)oc4)CC[C@]32O)C1` [(R)-(3S,5R,8R,9S,10S,13R,14S,17R)-14-hydroxy-10,13-dimethyl-17-(2-oxo-2H-pyran-5-yl)hexadecahydro-1H-cyclopenta[a]phenanthren-3-yl 2-amino-4-methylpentanoate] registered an IC50 of 0.0588 µM.

Regarding `CC(C)C[C@H](N)C(=O)O[C@H]1CC[C@@]2(C)[C@H](CC[C@@H]3[C@@H]2CC[C@]2(C)[C@@H](c4ccc(=O)oc4)CC[C@]32O)C1` [(S)-(3S,5R,8R,9S,10S,13R,14S,17R)-14-hydroxy-10,13-dimethyl-17-(2-oxo-2H-pyran-5-yl)hexadecahydro-1H-cyclopenta[a]phenanthren-3-yl 2-amino-4-methylpentanoate], half-maximal inhibition in data set [1] (IC50) required 0.0151 µM.

`C[C@@H](N)C(=O)O[C@H]1CC[C@@]2(C)[C@H](CC[C@@H]3[C@@H]2CC[C@]2(C)[C@@H](c4ccc(=O)oc4)CC[C@]32O)C1` [(R)-(3S,5R,8R,9S,10S,13R,14S,17R)-14-hydroxy-10,13-dimethyl-17-(2-oxo-2H-pyran-5-yl)hexadecahydro-1H-cyclopenta[a]phenanthren-3-yl 2-aminopropanoate] came in with an IC50 in data set [1] of 0.0034 µM.
